Data as given in PMC7016953 (Cells, 2020).

What was measured:
[1] = test system: PC12 cells (native TRPC3 channel complexes); experiment: [Ca2+]i analysis in fura-2-loaded PC12 cells; format: cell-based, rat
Experimental: Human embryonic kidney 293 (HEK293) cells were stably transfected with expression plasmids that encode hTRPC3-YFP, hTRPC6-YFP, hTRPC7-YFP, mTRPC4ß-YFP, rTRPV1-CFP, rTRPV2-YFP, rTRPV3-YFP, mTRPV4-YFP, or hTRPM2 as previously described. Cell lines were cultured in Earle’s minimum essential medium (MEM; Sigma, Munich, Germany), supplemented with 10% fetal calf serum (Gibco Thermo Fisher Scientific, Darmstadt, Germany), 2 mM L-glutamine, and required concentrations of geneticin in a range of 0.4–1 mg/mL. A HEK293mTRPC5-YFP cell line was maintained and induced as described before. The HEK293mTRPM3α2 cells (expressing the Ca^2+-permeable main variant of mouse TRPM3) were kindly provided by Johannes Oberwinkler (Marburg, Germany), the HEK293hTRPA1 cells that constitutively overexpress the human TRPA1 were from Dr. Natalie Tigue and Dr. Steve Moore (GlaxoSmithKline, Harlow, UK). With the exception of mTRPC5-YFP, all cell lines constitutively overexpress the respective TRP channel under the control of a cytomegalovirus (CMV) promoter. A HEK cell line stably expressing the human protein kinase C (PKC) ε C-terminally tagged with YFP [13] was generated and maintained in the same medium as HEKTRPC3-YFP cells. PC12 cells were cultured in RPMI-1640 (Sigma, Munich, Germany) with 10% fetal calf serum, 2 mM L-glutamine, 100 U/mL penicillin, and 0.1 mg/mL streptomycin. For electrophysiological and single cell [Ca^2+]i imaging experiments, PC12 cells were plated onto 25 mm poly-L-lysine-coated glass coverslips and measured 24–48 h after seeding. All cells were maintained at 37 °C in a 5% CO2-aerated, humidified atmosphere.
(§1) The microfluorometric single-cell [Ca^2+]i analysis was performed on an inverted epifluorescence microscope (Carl Zeiss, Jena, Germany) and calibrated as described. Cells were grown on 25 mm coverslips and loaded with 4 µM fura-2/AM (AAT Bioquest, Sunnyvale, CA, U.S.A.) in HBS containing 0.2% BSA for 30 min at 37 °C. After gently rinsing the coverslips with HBS, coverslips were mounted in a bath chamber and superfused with HBS containing 0.035% BSA.
Figure 7 Expression of TRPC3 and functional responses to TRPC activators in PC12 rat pheochromocytoma cells. (A) Immunofluorescence analysis of TRPC3 (green channel) and tyrosine hydroxylase (TH; red channel) expression in PC12 cells. Nuclei were counterstained with DAPI (blue channel). Bars: 20 µm scale. Time course of the [Ca^2+]i (B) and averaged basal and peak [Ca^2+]i values (C) were recorded by microfluorometric analysis in fura-2-loaded PC12 cells grown on glass coverslips. […] Data represent averages (B) or means and S.D. (C) of 6–12 imaging experiments for each compound. Significant increases compared to the respective basal values are indicated (#: p < 0.05; Student´s t-test for paired data).

TRPM8 = test system: T1, TRPM8; experiment: Selectivity profiling, fluo-4 [Ca2+]i response, TRPM8; format: cell-based; conditions: 100 µM
T1 construct: expressed in transfected cells
Experimental: The primary compound screen and the generation of concentration response curves in HEK293 cells or in PC12 cells were performed by using a custom-made fluorescence plate imager built into a robotic liquid handling station equipped with a 96-tip multichannel head (Freedom Evo 150, Tecan, Männedorf, Switzerland) as described previously. To this end, trypsinized cell suspensions were loaded with 4 µM fluo-4/AM (Invitrogen, Thermo Fisher Scientific, Waltham, MA, U.S.A.) in cell culture medium for 30 min at 37 °C. After brief centrifugation, cells were resuspended in HBS and dispensed into black pigmented, clear-bottom 384-well plates (Greiner µClear, Frickenhausen, Germany). Plates were mounted on the imager, and fluorescence signals were recorded with a cooled Zyla 5.5 camera (Andor, Belfast, UK) through a 515 nm long pass filter. The image acquisition was controlled by the µManager software (http://micro-manager.org), and excitation with a LED array (470 nm) was synchronized by the camera trigger output. […] When inhibitory potencies were evaluated, a second pipetting step with the respective reference agonist was performed. Fluorescence intensities were calculated from image stacks for each well with ImageJ (National Institutes of Health, Bethesda, MD, U.S.A.), corrected for background signals, and normalized to the initial intensities (F/F0). […]

rTRPV1-CFP = test system: T2, rTRPV1-CFP; experiment: Selectivity profiling, fluo-4 [Ca2+]i response, TRPV1; format: cell-based, rat; conditions: 100 µM
T2 construct: expressed in transfected cells
Experimental: (§2) Human embryonic kidney 293 (HEK293) cells were stably transfected with expression plasmids that encode hTRPC3-YFP, hTRPC6-YFP, hTRPC7-YFP, mTRPC4ß-YFP, rTRPV1-CFP, rTRPV2-YFP, rTRPV3-YFP, mTRPV4-YFP, or hTRPM2 as previously described. Cell lines were cultured in Earle’s minimum essential medium (MEM; Sigma, Munich, Germany), supplemented with 10% fetal calf serum (Gibco Thermo Fisher Scientific, Darmstadt, Germany), 2 mM L-glutamine, and required concentrations of geneticin in a range of 0.4–1 mg/mL. A HEK293mTRPC5-YFP cell line was maintained and induced as described before. […] For electrophysiological and single cell [Ca^2+]i imaging experiments, PC12 cells were plated onto 25 mm poly-L-lysine-coated glass coverslips and measured 24–48 h after seeding. […]
(§3) The primary compound screen and the generation of concentration response curves in HEK293 cells or in PC12 cells were performed by using a custom-made fluorescence plate imager built into a robotic liquid handling station equipped with a 96-tip multichannel head (Freedom Evo 150, Tecan, Männedorf, Switzerland) as described previously. […] Plates were mounted on the imager, and fluorescence signals were recorded with a cooled Zyla 5.5 camera (Andor, Belfast, UK) through a 515 nm long pass filter. […] When inhibitory potencies were evaluated, a second pipetting step with the respective reference agonist was performed. […]

TRPC3 = test system: T3, TRPC3; experiment: Microfluorometric single-cell [Ca2+]i analysis, fura-2-loaded HEK cells stably expressing TRPC3; format: cell-based, human; conditions: 50 µM
T3 construct: expressed in transfected cells
Experimental: as §1
Figure 2 Microfluorometric single-cell analysis of artemisinin-induced increases in [Ca^2+]i in fura-2-loaded HEK cells stably expressing TRPC3 (A), TRPC6 (B), or TRPC7 (C). […] Experiments were performed either in standard bath solution, containing 1 mM Ca^2+ (black lines and bars), or in a nominally Ca^2+-free HBS buffer, supplemented with 200 µM EGTA (grey lines and bars). Time courses of averaged responses (left), and statistical analysis of 6–11 independent imaging experiments with means and S.D. (right) are shown. Significant differences (p < 0.05, Student´s t-test with paired data: #, with unpaired data: *) are marked for the indicated comparisons; n.s.: difference is statistically not significant.

rTRPV3-YFP = test system: T4, rTRPV3-YFP; experiment: Selectivity profiling, fluo-4 [Ca2+]i response, TRPV3; format: cell-based, rat; conditions: 100 µM
T4 construct: expressed in transfected cells
Experimental: as §2, §3

[2] = test system: human protein kinase C (PKC) ε; experiment: Plasma membrane translocation of PKCε-YFP fusion protein; format: cell-based; conditions: 50 µM

C[C@@H]1CC[C@H]2[C@@H](C)C(=O)O[C@@H]3O[C@@]4(C)CC[C@@H]1[C@]32OO4 [artemisinin]
[Ca2+]i in fura 2-loaded PC12 cells ([1]; artemisinin 50 or 100 µM, 6–12 experiments for each compound): significant increases in [Ca^2+]i
response to artemisinin after neuronal growth factor treatment of PC12 cells ([1]; neuronal growth factor treatment): lower response
[Ca2+]i response, TRPM8 (TRPM8): none of the cell lines responded
[Ca2+]i response, TRPV1 (rTRPV1-CFP): none of the cell lines responded
[Ca2+]i signal in TRPC3-expressing cells in Ca2+-free bath (TRPC3; nominally Ca2+-free HBS with 200 µM EGTA): abolished
[Ca2+]i response in TRPC3-overexpressing HEK cells (TRPC3; standard bath 1 mM Ca2+): confirmed the responses
[Ca2+]i response, TRPV3 (rTRPV3-YFP): none of the cell lines responded
plasma membrane translocation of PKCε-YFP [2]: did not induce a discernible plasma membrane translocation
